# pIC50: −log10 of the molar value. Counter-ions that a name gives are not always drawn.
# Columns and labels:
# Cathepsin S = Cathepsin S (UniProt P25774); test: Cathepsin enzyme inhibition assay (fluorogenic peptide substrate Z-Val-Val-Arg-AMC), Cathepsin S; format: biochemical, human and mouse; settings: enzyme 1 nM, substrate 20 μM, pH 6.5; read-out: CatS IC50
# Method: (§1) Cathepsin Enzyme Inhibition Assay
# (§2) Enzyme activity is measured by observing the increase in fluorescence intensity caused by cleavage of a peptide substrate containing a fluorophore whose emission is quenched in the intact peptide.
# (§3) Assay buffer: 100 mM potassium phosphate pH 6.5, EDTA-Na 5 mM, Triton X-100 0.001%, DDT 5 mM.
# (§4) Enzymes (all at 1 nM): human and mouse Cathepsin S, Cat K, Cat B, Cat L Substrate (20 μM): Z-Val-Val-Arg-AMC, except for Cat K which uses Z-Leu-Arg-AMC (both from Bachem).
# (§5) AMC=7-Amino-4-Methyl-Coumarin.
# Enzyme is added to the substance dilutions in 96-well microtitre plates and the reaction is started with substrate. […] IC50 are calculated by standard methods. The results are expressed in μM in the following table.
# Cat L = Cat L (UniProt P07711); test: Cathepsin enzyme inhibition assay (fluorogenic peptide substrate Z-Val-Val-Arg-AMC), Cathepsin L; format: biochemical, human and mouse; settings: enzyme 1 nM, substrate 20 μM, pH 6.5; read-out: CatL IC50
# Method: as §1, §2, §3, §4, §5
# Excitation 360 nm, Emission 465 nm.
# Enzyme is added to the substance dilutions in 96-well microtitre plates and the reaction is started with substrate. Fluorescence emission is measured over 20 minutes, during which time a linear increase is observed in the absence of inhibitor. IC50 are calculated by standard methods. The results are expressed in μM in the following table.
pIC50 (Cathepsin S),pIC50 (Cat L),Structure (SMILES)
9.52,5.58,"N#CC1(NC(=O)[C@@H]2C[C@@H](S(=O)(=O)c3ccc(N4CCNCC4)cc3Cl)CN2C(=O)C2(C(F)(F)F)CC2)CC1 [Example 163, (2S,4R)-4-(2-Chloro-4-piperazin-1-yl-benzenesulfonyl)-1-(1-trifluoromethyl-cyclopropanecarbonyl)-pyrrolidine-2-carboxylic acid (1-cyano-cyclopropyl)-amide formiate]"
9.04,4.15,"N#CC1(NC(=O)C2CC(S(=O)(=O)c3ccccc3C(F)(F)F)CN2c2cccc3ccccc23)CC1 (stereo not shown) [Example 345, 1-Naphthalen-1-yl-4-(2-trifluoromethyl-benzenesulfonyl)-pyrrolidine-2-carboxylic acid (1-cyano-cyclopropyl)-amide]"
9.41,5.60,"N#CC1(NC(=O)[C@@H]2C[C@@H](S(=O)(=O)c3ccccc3Cl)CN2S(=O)(=O)c2ccc(Cl)cc2)CC1 [Example 315, (2S,4R)-4-(2-Chloro-benzenesulfonyl)-1-(4-chloro-benzenesulfonyl)-pyrrolidine-2-carboxylic Acid (1-cyano-cyclopropyl)-amide]"
7.37,≤ 4.60,"N#CCNC(=O)[C@@H]1C[C@@H](S(=O)(=O)c2ccccc2)CN1C(c1ccccc1)C(F)(F)F (stereo partly drawn) [Example 56, (2S,4R)-4-Benzenesulfonyl-1-(2,2,2-trifluoro-1-phenyl-ethyl)-pyrrolidine-2-carboxylic acid cyanomethyl-amide]"
8.40,≤ 4.60,"Cc1cc(N2C[C@H](S(=O)(=O)c3ccccc3C(F)(F)F)C[C@H]2C(=O)NC2(C#N)CC2)n(C2CCN(C(=O)OCc3ccccc3)CC2)n1 [Example 406, 4-{5-[(2S,4R)-2-(1-Cyano-cyclopropylcarbamoyl)-4-(2-trifluoromethyl-benzenesulfonyl)-pyrrolidin-1-yl]-3-methyl-pyrazol-1-yl}-piperidine-1-carboxylic acid Benzyl Ester]"
8.32,5.84,"CC(C)(C)OC(=O)NC1(C(=O)N2C[C@H](S(=O)(=O)c3ccc(OCC(F)(F)F)cc3Cl)C[C@H]2C(=O)NC2(C#N)CC2)CC1 [Example 242, {1-[(2S,4R)-4-[2-Chloro-4-(2,2,2-trifluoro-ethoxy)-benzenesulfonyl]-2-(1-cyano-cyclopropylcarbamoyl)-pyrrolidine-1-carbonyl]-cyclopropyl}-carbamic Acid Tert-butyl ester]"
9.30,5.89,"CC(C)(C)OC(=O)N1C[C@H](S(=O)(=O)c2ccccc2Cl)C[C@H]1C(=O)NC(C#N)c1ccccc1 (stereo partly drawn) [Example 36, (2S,4R)-4-(2-Chloro-benzenesulfonyl)-2-[(cyano-phenyl-methyl)-carbamoyl]-pyrrolidine-1-carboxylic acid tert-butyl ester]"
7.51,≤ 4.60,"CC(C)(C)OC(=O)N1C[C@H](S(=O)(=O)c2cccc(Cl)c2Cl)C[C@H]1C(=O)NC1(C#N)CC1 [Example 41, (2S,4R)-2-(1-Cyano-cyclopropylcarbamoyl)-4-(2,3-dichloro-benzenesulfonyl)-pyrrolidine-1-carboxylic acid tert-butyl ester]"
9.53,5.26,"N#CC1(NC(=O)[C@@H]2C[C@@H](S(=O)(=O)c3ccccc3Cl)CN2C(=O)Cc2ncc(Cl)cn2)CC1 [Example 414, (2S,4R)-4-(2-Chloro-benzenesulfonyl)-1-[2-(5-chloro-pyrimidin-2-yl)-acetyl]-pyrrolidine-2-carboxylic acid (1-cyano-cyclopropyl)-amide]"
8.80,≤ 4.60,"CCC(=O)N1C[C@H](S(=O)(=O)c2ccccc2C(F)(F)F)C[C@H]1C(=O)NC1(C#N)CC1 [Example 103, (2S,4R)-1-Propionyl-4-(2-trifluoromethyl-benzenesulfonyl)-pyrrolidine-2-carboxylic acid (1-cyano-cyclopropyl)-amide]"
10.22,6.59,"N#CC1(NC(=O)[C@@H]2C[C@@H](S(=O)(=O)c3ccc(-n4ccc5ncnc-5c4)cc3Cl)CN2C(=O)C2(c3ccc(Cl)cc3)CC2)CC1 [Example 350, (2S,4R)-4-(2-Chloro-4-imidazo[4,5-c]pyridin-5-yl-benzenesulfonyl)-1-[1-(4-chloro-phenyl)-cyclopropanecarbonyl]-pyrrolidine-2-carboxylic acid (1-cyano-cyclopropyl)-amide]"
9.30,≤ 4.60,"N#CCNC(=O)[C@@H]1C[C@@H](S(=O)(=O)c2ccccc2C(F)(F)F)CN1C(=O)c1ccccc1 [Example 71, (2S,4R)-1-Benzoyl-4-(2-trifluoromethyl-benzenesulfonyl)-pyrrolidine-2-carboxylic acid cyanomethyl-amide]"
6.62,≤ 4.60,"N#CC1(NC(=O)[C@@H]2C[C@@H](S(=O)(=O)c3ccc(OCC(F)(F)F)cc3Cl)CN2CC2(c3ccc(Cl)cc3)CC2)CC1 [Example 365, (2S,4R)-1-[1-(4-Chloro-phenyl)-cyclopropylmethyl]-4-[2-chloro-4-(2,2,2-trifluoro-ethoxy)-benzenesulfonyl]-pyrrolidine-2-carboxylic acid (1-cyano-cyclopropyl)-amide]"
7.85,4.70,"N#CC1CCN2C[C@H](S(=O)(=O)c3ccc(F)cc3Cl)C[C@@]12C(=O)NC1(C#N)CC1 (stereo partly drawn) [Example 383, (6R,7aS)-6-(2-Chloro-4-fluoro-benzenesulfonyl)-1-cyano-tetrahydro-pyrrolizine-7a-carboxylic Acid (1-cyano-cyclopropyl)-amide]"
7.84,4.77,"N#CCNC(=O)[C@@H]1C[C@@H](S(=O)(=O)c2ccccc2Cl)CN1C(c1ccccc1)C(F)(F)F (stereo partly drawn) [Example 57, (2S,4R)-4-(2-Chloro-benzenesulfonyl)-1-(2,2,2-trifluoro-1-phenyl-ethyl)-pyrrolidine-2-carboxylic acid cyanomethyl-amide]"
8.85,4.53,"CC(=O)N1C[C@H](S(=O)(=O)c2ccccc2Cl)C[C@H]1C(=O)NC1(C#N)CC1 [Example 79, (2S,4R)-1-Acetyl-4-(2-chloro-benzenesulfonyl)-pyrrolidine-2-carboxylic acid (1-cyano-cyclopropyl)-amide]"
7.96,≤ 4.60,"CC(C)(C)OC(=O)N1C[C@H](S(=O)(=O)c2ccc(-n3ccnc3)cc2)C[C@H]1C(=O)NC1(C#N)CC1 [Example 3, (2S,4R)-2-(1-Cyano-cyclopropylcarbamoyl)-4-(4-imidazol-1-yl-benzenesulfonyl)-pyrrolidine-1-carboxylic acid tert-butyl ester]"
7.52,≤ 4.60,"CCc1ccccc1S(=O)(=O)[C@H]1CN[C@H](C(=O)NC2(C#N)CC2)C1 [Example 11, (2S,4R)-4-(2-Ethyl-benzenesulfonyl)-pyrrolidine-2-carboxylic acid (1-cyano-cyclopropyl)-amide Hydrochloride]"
9.70,≤ 4.60,"N#CC1(NC(=O)[C@@H]2C[C@@H](S(=O)(=O)c3ccccc3C(F)(F)F)CN2C(=O)CC(F)(F)F)CC1 [Example 206, (2S,4R)-4-(2-Trifluoromethyl-benzenesulfonyl)-1-(3,3,3-trifluoro-propionyl)-pyrrolidine-2-carboxylic acid (1-cyano-cyclopropyl)-amide]"
8.82,4.97,"N#CC1(NC(=O)[C@@H]2C[C@@H](S(=O)(=O)c3ccccc3C(F)(F)F)CN2c2cc(C3CC3)nn2-c2ccc(C(F)(F)F)cc2)CC1 [Example 363, (2S,4R)-1-[5-Cyclopropyl-2-(4-trifluoromethyl-phenyl)-2H-pyrazol-3-yl]-4-(2-trifluoromethyl-benzenesulfonyl)-pyrrolidine-2-carboxylic acid (1-cyano-cyclopropyl)-amide]"
7.82,≤ 4.60,"CC(C)(C)OC(=O)N1C[C@H](S(=O)(=O)c2ccccc2CO)C[C@H]1C(=O)NC1(C#N)CC1 [Example 1, (2S,4R)-2-(1-Cyano-cyclopropylcarbamoyl)-4-(2-hydroxymethyl-benzenesulfonyl)-pyrrolidine-1-carboxylic acid tert-butyl ester]"
7.73,≤ 4.60,"N#CC1(NC(=O)[C@@H]2C[C@@H](S(=O)(=O)c3ccccc3Cl)CN2C=O)CC1 [Example 78, (2S,4R)-4-(2-Chloro-benzenesulfonyl)-1-formyl-pyrrolidine-2-carboxylic acid (1-cyano-cyclopropyl)-amide]"
,≤ 4.60,"N#CC1(NC(=O)[C@@H]2C[C@@H](S(=O)(=O)c3ccccc3C(F)(F)F)CN2c2ncccn2)CC1 [Example 408, (2S,4R)-1-Pyrimidin-2-yl-4-(2-trifluoromethyl-benzenesulfonyl)-pyrrolidine-2-carboxylic acid (1-cyano-cyclopropyl)-amide]"
,≤ 4.60,"N#CC1(NC(=O)[C@H]2C[C@@H](S(=O)(=O)c3ccccc3C(F)(F)F)CN2c2ncccc2C(F)(F)F)CC1 [Example 187, (2R,4R)-4-(2-Trifluoromethyl-benzenesulfonyl)-1-(3-trifluoromethyl-pyridin-2-yl)-pyrrolidine-2-carboxylic acid (1-cyano-cyclopropyl)-amide]"

# From patent publication US8163793B2, “Proline derivatives” (Hoffman-La Roche Inc., priority 2009, dated 2012)
